This is an account of results in US10017584B2, “6-deoxy-6-thioether-amino acid cyclodextrin derivative and preparation method thereof” (Hangzhou Adamerck Pharmlabs Inc., priority 2010, dated 2018).

Like-named read-outs stand apart in the source and are kept apart here.

The subject of series [1] is small mice. The note with it: according to reports; cited from earlier work.
In series [2] the test system is muscular relaxation induced by rocuronium bromide. The experiment in a line: Reversal of rocuronium bromide induced muscular relaxation in anaesthetised Guinea pigs (TOF-Watch SX monitor). The conditions noted are these: Guinea pig; compound 2 mg/kg given when TOFR disappears and T1 decreases more than 80%, after i.v. rocuronium bromide (twice ED90 dose). It is filed as in vivo, Guinea pig. The source says: After pentobarbital sodium anesthesia in the abdominal cavity, the Guinea pigs are fixed on rat boards and connected to small animal ventilators after endotracheal intubation. Stimulating electrodes of a muscular relaxation monitor, TOF-Watch SX, are respectively connected to left post-femur and post-tibialis subcutis of the Guinea pig. Self-made tools are used to fix the left tibialis on a small platform while permitting the left hind paw to be able to move freely. A sensor is fixed on a palm surface of a left hind leg of the Guinea pig and a probe of skin temperature is fixed on a palm surface of a left front leg of the Guinea pig.

For series [3], the system named is small mice. The experiment in a line: Toxic reactions after intravenous tail injection in male small mice. The conditions noted are these: intravenous injection at the tail, 200 mg/ml, 4000 mg/kg.
Description: (§1) Male small mice are processed with intravenous injection with compounds of the present invention at the tails.
Series [4] relates to small mice. The note with it: mouse, in vivo, iv, 4000 mg/kg.
Description: as §1

`O=C(O)CCSC[C@H]1O[C@@H]2O[C@H]3[C@H](O)[C@@H](O)[C@@H](O[C@H]4[C@H](O)[C@@H](O)[C@@H](O[C@H]5[C@H](O)[C@@H](O)[C@@H](O[C@H]6[C@H](O)[C@@H](O)[C@@H](O[C@H]7[C@H](O)[C@@H](O)[C@@H](O[C@H]8[C@H](O)[C@@H](O)[C@@H](O[C@H]9[C@H](O)[C@@H](O)[C@@H](O[C@H]1[C@H](O)[C@H]2O)O[C@@H]9CSCCC(=O)O)O[C@@H]8CSCCC(=O)O)O[C@@H]7CSCCC(=O)O)O[C@@H]6CSCCC(=O)O)O[C@@H]5CSCCC(=O)O)O[C@@H]4CSCCC(=O)O)O[C@@H]3CSCCC(=O)O` [Bridion, sugammadex]: in series [1], the maximal safe dose is 2000 mg/kg.

In the case of `N[C@@H](CCSC[C@H]1O[C@@H]2O[C@H]3[C@H](O)[C@@H](O)[C@@H](O[C@H]4[C@H](O)[C@@H](O)[C@@H](O[C@H]5[C@H](O)[C@@H](O)[C@@H](O[C@H]6[C@H](O)[C@@H](O)[C@@H](O[C@H]7[C@H](O)[C@@H](O)[C@@H](O[C@H]8[C@H](O)[C@@H](O)[C@@H](O[C@H]9[C@H](O)[C@@H](O)[C@@H](O[C@H]1[C@H](O)[C@H]2O)O[C@@H]9CSCC[C@H](N)C(=O)[O-])O[C@@H]8CSCC[C@H](N)C(=O)[O-])O[C@@H]7CSCC[C@H](N)C(=O)[O-])O[C@@H]6CSCC[C@H](N)C(=O)[O-])O[C@@H]5CSCC[C@H](N)C(=O)[O-])O[C@@H]4CSCC[C@H](N)C(=O)[O-])O[C@@H]3CSCC[C@H](N)C(=O)[O-])C(=O)[O-].[Na+].[Na+].[Na+].[Na+].[Na+].[Na+].[Na+].[Na+]` [CD-17, 6-per-deoxy-6-per-(α-L-amino acid ethyl)thioether-γ-cyclodextrin sodium salt], in series [2], the “T1 recovering to 25%/time” value worked out at 3.00 min, the “T1 recovering to 50%/time” value was 5.25 min, the “T1 recovering to 75%/time” value is 7.75 min and the “TOF recovering to 50%/time” value amounted to 3.00 min. The “TOF recovering to 75%/time” value in series [2] was 6.25 min. Also, the “result description (toxic reactions)” value in series [3] is listed as “normal”.

For `CC(C)(SC[C@H]1O[C@@H]2O[C@H]3[C@H](O)[C@@H](O)[C@@H](O[C@H]4[C@H](O)[C@@H](O)[C@@H](O[C@H]5[C@H](O)[C@@H](O)[C@@H](O[C@H]6[C@H](O)[C@@H](O)[C@@H](O[C@H]7[C@H](O)[C@@H](O)[C@@H](O[C@H]8[C@H](O)[C@@H](O)[C@@H](O[C@H]9[C@H](O)[C@@H](O)[C@@H](O[C@H]1[C@H](O)[C@H]2O)O[C@@H]9CSC(C)(C)[C@@H](N)C(=O)[O-])O[C@@H]8CSC(C)(C)[C@@H](N)C(=O)[O-])O[C@@H]7CSC(C)(C)[C@@H](N)C(=O)[O-])O[C@@H]6CSC(C)(C)[C@@H](N)C(=O)[O-])O[C@@H]5CSC(C)(C)[C@@H](N)C(=O)[O-])O[C@@H]4CSC(C)(C)[C@@H](N)C(=O)[O-])O[C@@H]3CSC(C)(C)[C@@H](N)C(=O)[O-])[C@@H](N)C(=O)[O-].[Na+].[Na+].[Na+].[Na+].[Na+].[Na+].[Na+].[Na+]` [CD-20, 6-per-deoxy-6-per-(α-D-amino acid dimethyl)sulfinyl-γ-cyclodextrin sodium salt], the “result description (toxic reactions)” value in series [4] was “normal”.
